This note sets out measurements from US20220015371A1, “Compositions and Methods for Reducing Pesticide-Induced Plant Damage and Improving Plant Yield” (priority 2018, published 2022).

Molecules are shown by their SMILES.

The test system of data set [1] is rice of the variety Presidio. Description: Rice crop injury in herbicide application program, field trial. Conditions: visually rated 8 May, 0 = no injury, 100 = complete plant death. The source says:
(§1) To further evaluate the performance of certain embodiments of the present disclosure, bacterial fermentation product of the present disclosure was applied in a common herbicide application program to test herbicide injury tolerance, weed control, grain yield and milling quality in rice. Experiments were established in a field of Crowley fine sandy loam soil (59% sand, […], 12% clay, 0.7% organic matter and pH 5.3). The field was cropped to rice for every third year for many years and was naturally infested with many weeds. Plots consisted of six 18-ft rows, spaced 7.5-in. between rows. The experiment was conducted as a randomized completed block design with four replications. The trial consisted of six treatments (see Table 12, below).
(§2) Rice of the variety Presidio was drill seeded at 70 lb/acre on 5 Apr. Seeds for treatments 2, 4, 5 and 6 were treated with Composition E at 2.3 oz product/CWT prior to planting. Compositions A and B were applied at 7 oz product/acre on 1 May (postemergence), 2 Jun (panicle differentiation, PD) and 19 Jun (boot), using a CO2 pressurized, hand-held sprayer equipped with a boom of three TeeJet 8002VS nozzles spaced 19-in. apart that traveled at 3 mph and delivered at 29 gal/acre at 40 psi. […]

For the next data set, the system named is broadleaf signalgrass. The data set can be described thus: Weed control in rice field trial: broadleaf signalgrass. It is filed as in vivo. The note with it: visually rated 8 May.
Text: as §1, §2

The subject of the next data set is yellow nutsedge. Description: Weed control in rice field trial: yellow nutsedge. In kind it is in vivo. The note with it: visually rated 8 May.
Text: as §1, §2

The next data set concerns carpet weed. Description: Weed control in rice field trial: carpet weed. In kind it is in vivo. Conditions: visually rated 8 May.
Text: as §1, §2

For data set [2], the system named is rice plants. Description: Example 3: rice plants stressed by foliar propanil, field trial. In kind it is in vivo. The note with it: propanil 4000 ml/ha, three days after application (FIG. 9A). The method, then: To test the effect of foliar application of an inventive fermentation culture lysate composition on rice plants stressed by foliar application of the chemical herbicide propanil, field trial(s) were conducted. Control fields (FIG. 8, A; FIG. 9A) were treated with herbicide formulation comprising propanil (foliar application at 4000 ml/ha). Test fields (FIG. 8, B; FIG. 9B) were treated with a combination of the herbicide formulation comprising propanil (foliar application at 4000 ml/ha) and fermentation culture lysate Composition B (foliar application at 500 ml/ha).

The subject of data set [3] is rice plants. Description: Example 6: rice plants stressed by foliar profoxydim, field trial. In kind it is in vivo. The note with it: profoxydim 750 ml/ha, three days after application (FIG. 14A). As for the experimental part:
To test the effect of foliar application of inventive fermentation culture lysate composition(s) on rice plants stressed by foliar application of the chemical herbicide profoxydim, field trial(s) were conducted. Control fields (FIG. 13, A; FIG. 14A) were treated with herbicide formulation comprising profoxydim (foliar application at 750 ml/ha). Test fields were treated with either (FIG. 13, B; FIG. 14B) a combination of (i) herbicide formulation comprising profoxydim (foliar application at 750 ml/ha) and (ii) fermentation culture lysate Composition B (foliar application at 500 ml/ha) or (FIG. 13, C; FIG. 14C) a combination of (i) herbicide formulation comprising profoxydim (foliar application at 750 ml/ha), (ii) fermentation culture lysate Composition B (foliar application at 500 ml/ha), and (iii) fermentation culture lysate Composition F (foliar application at 500 ml/ha).

For data set [4], the system named is rice plants. Description: Example 5: rice plants stressed by foliar cyhalofop, field trial. Conditions: cyhalofop 1500 ml/ha, three days after application (FIG. 12A). In kind it is in vivo. The method, then:
To test the effect of foliar application of an inventive fermentation culture lysate composition on rice plants stressed by foliar application of the chemical herbicide cyhalofop, field trial(s) were conducted. Control fields (FIG. 11, A; FIG. 12A) were treated with herbicide formulation comprising cyhalofop (foliar application at 1500 ml/ha). Test fields (FIG. 11, B; FIG. 12B) were treated with a combination of the herbicide formulation comprising cyhalofop (foliar application at 1500 ml/ha) and fermentation culture lysate Composition B (foliar application at 500 ml/ha).

The test system of data set [5] is glyphosate-tolerant Palmer Amaranth. Description: Palmer Amaranth shoot and root weight, greenhouse conditions. It is filed as in vivo, Amaranthus palmeri. The note with it: two weeks after spraying. The source says: To test the effects of the inventive plant treatment product on weed survival in herbicide-tolerant Palmer Amaranth (Amaranthus palmeri) plants, the plant treatment product (Composition C+herbicide) or herbicide component (alone) were applied to weeds, in greenhouse conditions. […] The measurements of dry shoot mass and dry root mass were taken two weeks after spraying.

The test system of the next data set is rice seedlings. Description: Example 2: rice seedlings stressed by post-emergence halosulfuron, field trial. Conditions: halosulfuron post-emergence 1800 ml/ha, Composition E seed treatment 150 ml/100 kg seed where applied (FIGS. 7A, 7B). In kind it is in vivo. The method, then: To test the effect of seed application of an inventive fermentation culture lysate composition on rice seedlings stressed by post-emergence application of the chemical herbicide halosulfuron, various field trial(s) were conducted. Control fields (FIGS. 6A, 7A) were treated with herbicide formulation comprising halosulfuron (post-emergence at 1800 ml/ha). Test fields (FIGS. 6B, 7B) included seedling treated with the herbicide formulation comprising halosulfuron (post-emergence at 1800 ml/ha) from seeds treated with fermentation culture lysate Composition E (seed treatment at 150 ml/100 kg seed) during planting.

Where [6] appears, read: glyphosate 1.27 kg/ha, Composition C 1 liter/ha.

As to `CC1(C)CON(Cc2ccccc2Cl)C1=O` [clomazone PRE, clomazone], in [1], the “Crop injury (%)” value is reported as 5.0 d^y %. The “Weed Control (%) Broadleaf signalgrass” value in the data set on broadleaf signalgrass came to 90 b %. In addition, in the data set with yellow nutsedge, the “Weed Control (%) Yellow nutsedge” value is 0 b %. In the data set with carpet weed, the “Weed Control (%) Carpet weed” value came to 0 c %.

Consider `CCC(=O)Nc1ccc(Cl)c(Cl)c1` [propanil], for which the phytotoxicity symptoms result in the data set with rice plants [2] is on record as “showed phytotoxicity symptoms”.

Consider `CCCC(=NOCC(C)Oc1ccc(Cl)cc1)C1=C(O)CC(C2CCCSC2)CC1=O` (stereo not shown) [profoxydim], for which, in the data set on rice plants [3], the phytotoxicity symptoms result is recorded as “showed phytotoxicity symptoms”.

For `C[C@@H](Oc1ccc(Oc2ccc(C#N)cc2F)cc1)C(=O)O` [cyhalofop], in the data set with rice plants [4], the phytotoxicity symptoms entry is given as “showed phytotoxicity symptoms”.

On to `O=C(O)CNCP(=O)(O)O` [Herbicide, glyphosate], for which, in [5] (setting [6]), the “Palmer Amaranth root dry weight per plant” value amounted to 0.768, the “Palmer Amaranth root fresh weight per plant” value was 4.70, the “Palmer Amaranth shoot dry weight per plant” value amounted to 5.31 and the “Palmer Amaranth shoot fresh weight per plant” value is given as 15.0. Besides, in data set [5], the “Palmer Amaranth root dry weight, change vs Untreated Control” value is given as −40.9%; the “Palmer Amaranth root fresh weight, change vs Untreated Control” value was −51.3%; the “Palmer Amaranth shoot dry weight, change vs Untreated Control” value is −7.01%; the “Palmer Amaranth shoot fresh weight, change vs Untreated Control” value was −20.6%.

Turning to `COc1cc(OC)nc(NC(=O)NS(=O)(=O)c2c(C(=O)O)c(Cl)nn2C)n1` [halosulfuron], the “bleaching of rice seedlings” value with rice seedlings was “caused bleaching”.
